Source: US12662676B2, “Aptamer nucleic acid molecule, and complex and application thereof” (EAST CHINA UNIVERSITY OF SCIENCE AND TECHNOLOGY, priority 2019, dated 2026)

Assay: Fluorescence activation of III-3 fluorophore by Pepper aptamers and mutants
Format: biochemical
Conditions: Activation of III-3 by Pepper mutants with multiple mutations; 1 μM III-3 with 5 μM RNA
Description: Preparation of Pepper or Pepper mutant aptamer according to the commonly used experimental method (1). 5 μM aptamer and 1 μM fluorophore were incubated in the detection buffer (40 mM HEPES, pH 7.4, 125 mM KCl, 5 mM MgCl2, 5% DMSO). The maximal excitation and emission peaks of the aptamer-fluorophore complexes were determined using a Synergy Neo2 multifunctional microplate reader. The fluorescence intensities of the aptamer-fluorophore complexes at the maximal excitation and emission peaks were determined using a Synergy Neo2 multifunctional microplate reader. The control sample (1 μM fluorophore without aptamer) was also measured under the same conditions. Then the ratios of fluorescence intensity were calculated. For example, the fluorescence maximal excitation and emission peaks of the complex of 5 μM F30-Pepper-2 and 1 μM III-3 fluorophore are 485 nm and 530 nm, respectively. The fluorescence intensity of the complex at 485±10 nm excitation and 530 nm±10 nm emission was 36,000, the fluorescence intensity of the control sample (1 μM III-3 fluorophore only) under the same detection conditions was 10. Thus, the activation ratio of F30-Pepper-2 aptamer on III-3 fluorophore was 3,600-fold.
In order to detect the fluorescence activation of III-3 fluorophore by different Pepper mutant, the Pepper-1 sequence in F30-Pepper-1 was mutated according to Table 1. […] 1 μM III-3 was incubated with […] RNA and their fluorescence activation folds were determined according to the commonly used experimental method (5). […] In summary, many Pepper mutants containing single and multiple mutants still retain the ability to activate the fluorescence of III-3 fluorophore.
In order to detect the activation of III-3 by modified Pepper, base-modified Pepper-3 was synthesized (SEQ ID NO: 6, the underlined nucleotides in […] GGCC contain deoxyribonucleotide bases) and Pepper-4 (SEQ ID NO: 7, the underlined nucleotides in […] GGGCC contain 2′-F modification) (synthesized by Shanghai GenePharma Co., Ltd), which contain deoxyribonucleotides replacement (shaded bases in FIG. 5A) or 2′-F modification (shaded bases in FIG. 5B) in the stem-loop region of Pepper. Detection of the fluorescence activation of III-3 fluorophore by these modified Peppers was carried out according to the commonly used experimental method (5).

Q: With “C2A/G31U/G10C/C30G: F30-Pepper-1 mutant aptamer (NACAAUCGUCGCGUGUCGNNNACUGGCGCGUN; Pepper mutant embedded in F30 scaffold, chemistry not given here, further chemistry not given here)” as the substance, how does the Activation folds read?
A: 3475 folds

Q: With “C2A/G31U/G10U/C30A: F30-Pepper-1 mutant aptamer (NACAAUCGUUGCGUGUCGNNNACUGGCGCAUN; Pepper mutant embedded in F30 scaffold, chemistry not given here, further chemistry not given here)” as the substance, how does the Activation folds read?
A: 3024 folds

Q: Which Activation folds does the source give for “C2G/G31C/G10U/C30A: F30-Pepper-1 mutant aptamer (NGCAAUCGUUGCGUGUCGNNNACUGGCGCACN; Pepper mutant embedded in F30 scaffold, chemistry not given here, further chemistry not given here)” here?
A: 3125 folds

Q: For “C2G/G31C/G10A/C30U/U6G/C27U: F30-Pepper-1 mutant aptamer (NGCAAGCGUAGCGUGUCGNNNACUGGUGCUCN; RNA, backbone, methylation of C and the base at N not given here; Pepper aptamer mutant embedded in F30 scaffold)”, which Activation folds is on record?
A: 758 folds

Q: Which Activation folds does the source give for “C2G/G31C/G10C/C30G/U6G/C27U: F30-Pepper-1 mutant aptamer (NGCAAGCGUCGCGUGUCGNNNACUGGUGCGCN; RNA, backbone, methylation of C and the base at N not given here; Pepper aptamer mutant embedded in F30 scaffold)” here?
A: 736 folds

Q: For “C2U/G31A/G10U/C30A: F30-Pepper-1 mutant aptamer (NUCAAUCGUUGCGUGUCGNNNACUGGCGCAAN; Pepper mutant embedded in F30 scaffold, chemistry not given here, further chemistry not given here)”, which Activation folds is on record?
A: 2583 folds

Same assay, conditions: Activation of III-3 by Pepper mutants with single mutation; 1 μM III-3 with 5 μM RNA

Q: Which Activation folds does the source give for “C29G: F30-Pepper-1 mutant aptamer (NCCAAUCGUGGCGUGUCGNNNACUGGCGGCGN; Pepper mutant embedded in F30 scaffold, chemistry not given here, further chemistry not given here) [Compound C29G]” here?
A: 2145 folds

Q: For “A5C: F30-Pepper-1 mutant aptamer (NCCACUCGUGGCGUGUCGNNNACUGGCGCCGN; Pepper mutant embedded in F30 scaffold, chemistry not given here, further chemistry not given here) [Compound A5C]”, which Activation folds is on record?
A: 2628 folds

Q: Which Activation folds does the source give for “G28U: F30-Pepper-1 mutant aptamer (NCCAAUCGUGGCGUGUCGNNNACUGGCUCCGN; RNA, backbone and the base at N not given here; Pepper variant inserted in F30 scaffold RNA) [Compound G28U]” here?
A: 873 folds

Q: For “A4C: F30-Pepper-1 mutant aptamer (NCCCAUCGUGGCGUGUCGNNNACUGGCGCCGN; Pepper mutant embedded in F30 scaffold, chemistry not given here, further chemistry not given here) [Compound A4C]”, which Activation folds is on record?
A: 2772 folds

Q: With “C12U: F30-Pepper-1 mutant aptamer (NCCAAUCGUGGUGUGUCGNNNACUGGCGCCGN; Pepper mutant embedded in F30 scaffold, chemistry not given here, further chemistry not given here) [Compound C12U]” as the substance, how does the Activation folds read?
A: 2268 folds

Q: With “C29U: F30-Pepper-1 mutant aptamer (NCCAAUCGUGGCGUGUCGNNNACUGGCGUCGN; Pepper mutant embedded in F30 scaffold, chemistry not given here, further chemistry not given here) [Compound C29U]” as the substance, how does the Activation folds read?
A: 1437 folds

Q: For “G11U: F30-Pepper-1 mutant aptamer (NCCAAUCGUGUCGUGUCGNNNACUGGCGCCGN; RNA, backbone, methylation of C and the base at N not given here; Pepper aptamer mutant embedded in F30 scaffold) [Compound G11U]”, which Activation folds is on record?
A: 1512 folds

Q: For “C3A: F30-Pepper-1 mutant aptamer (NCAAAUCGUGGCGUGUCGNNNACUGGCGCCGN; RNA, backbone, methylation of C and the base at N not given here; Pepper aptamer mutant embedded in F30 scaffold) [Compound C3A]”, which Activation folds is on record?
A: 2484 folds

Q: With “G18C: F30-Pepper-1 mutant aptamer (NCCAAUCGUGGCGUGUCCNNNACUGGCGCCGN; RNA, backbone, methylation of C and the base at N not given here; Pepper aptamer mutant embedded in F30 scaffold) [Compound G18C]” as the substance, how does the Activation folds read?
A: 1028 folds

Q: With “G13C: F30-Pepper-1 mutant aptamer (NCCAAUCGUGGCCUGUCGNNNACUGGCGCCGN; RNA, backbone, methylation of C and the base at N not given here; Pepper aptamer mutant embedded in F30 scaffold) [Compound G13C]” as the substance, how does the Activation folds read?
A: 1758 folds

Q: With “C30A: F30-Pepper-1 mutant aptamer (NCCAAUCGUGGCGUGUCGNNNACUGGCGCAGN; RNA, backbone, methylation of C and the base at N not given here; Pepper aptamer mutant embedded in F30 scaffold) [Compound C30A]” as the substance, how does the Activation folds read?
A: 1596 folds

Q: Which Activation folds does the source give for “C30U: F30-Pepper-1 mutant aptamer (NCCAAUCGUGGCGUGUCGNNNACUGGCGCUGN; RNA, backbone, methylation of C and the base at N not given here; Pepper aptamer mutant embedded in F30 scaffold) [Compound C30U]” here?
A: 2587 folds

Q: For “U6A: F30-Pepper-1 mutant aptamer (NCCAAACGUGGCGUGUCGNNNACUGGCGCCGN; RNA, backbone and the base at N not given here; Pepper variant inserted in F30 scaffold RNA) [Compound U6A]”, which Activation folds is on record?
A: 1872 folds

Q: For “U6C: F30-Pepper-1 mutant aptamer (NCCAACCGUGGCGUGUCGNNNACUGGCGCCGN; RNA, backbone and the base at N not given here; Pepper variant inserted in F30 scaffold RNA) [Compound U6C]”, which Activation folds is on record?
A: 2088 folds

Q: With “G18U: F30-Pepper-1 mutant aptamer (NCCAAUCGUGGCGUGUCUNNNACUGGCGCCGN; RNA, backbone, methylation of C and the base at N not given here; Pepper aptamer mutant embedded in F30 scaffold) [Compound G18U]” as the substance, how does the Activation folds read?
A: 1024 folds

Q: With “G11A: F30-Pepper-1 mutant aptamer (NCCAAUCGUGACGUGUCGNNNACUGGCGCCGN; RNA, backbone, methylation of C and the base at N not given here; Pepper aptamer mutant embedded in F30 scaffold) [Compound G11A]” as the substance, how does the Activation folds read?
A: 1526 folds

Q: Which Activation folds does the source give for “C7A: F30-Pepper-1 mutant aptamer (NCCAAUAGUGGCGUGUCGNNNACUGGCGCCGN; RNA, backbone, methylation of C and the base at N not given here; Pepper aptamer mutant embedded in F30 scaffold) [Compound C7A]” here?
A: 1044 folds

Same assay, conditions: deoxyribonucleotide or 2′-F modification in stem-loop region

Q: With “Pepper-3: base-modified Pepper, SEQ ID NO: 6, deoxyribonucleotides replacement in the stem-loop region (GGCCCCCAAUCGUGGCGUGUCGGCCUGCUUCGGCAGGCACUGGCGCCGGGGCC; deoxyribonucleotides at some stem-loop positions, underlined positions not recoverable, further chemistry not given here)” as the substance, how does the “fluorescence activation of III-3 by base-modified Pepper” value read?
A: significantly activate the fluorescence of III-3 fluorophore

Q: With “Pepper-4: base-modified Pepper, SEQ ID NO: 7, 2′-F modification in the stem-loop region (GGCCCCCCAAUCGUGGCGUGUCGGCCUGCUUCGGCAGGCACUGGCGCCGGGGGCC; 2'-fluoro at some stem-loop positions, underlined positions not recoverable, further chemistry not given here)” as the substance, how does the “fluorescence activation of III-3 by base-modified Pepper” value read?
A: significantly activate the fluorescence of III-3 fluorophore
